Measured values from BigSolDB 2.1.

O=C(O)CCCCCCC(=O)O
Details | solubility (mole fraction)
in THF, 283.15 K | 0.0356
in THF, 289.75 K | 0.0437
in THF, 296.85 K | 0.0546
in THF, 303.75 K | 0.0665
in THF, 310.75 K | 0.0806
in THF, 317.95 K | 0.0982
in THF, 324.95 K | 0.117
in THF, 331.95 K | 0.141
in acetone, 283.15 K | 0.006
in acetone, 289.95 K | 0.00833
in acetone, 296.85 K | 0.0115
in acetone, 303.75 K | 0.0154
in acetone, 310.75 K | 0.0208
in acetone, 317.55 K | 0.0292
in acetone, 322.75 K | 0.035
in ethanol, 283.25 K | 0.0158
in ethanol, 290.35 K | 0.021
in ethanol, 297.05 K | 0.0281
in ethanol, 303.85 K | 0.0374
in ethanol, 310.95 K | 0.0491
in ethanol, 317.85 K | 0.0627
in ethanol, 324.85 K | 0.0795
in ethyl acetate, 283.15 K | 0.00167
in ethyl acetate, 289.95 K | 0.00227
in ethyl acetate, 296.85 K | 0.0031
in ethyl acetate, 303.95 K | 0.00462
in ethyl acetate, 310.95 K | 0.0065
in ethyl acetate, 317.75 K | 0.00902
in ethyl acetate, 324.85 K | 0.0125
in ethyl acetate, 331.75 K | 0.0186
in isopropanol, 283.15 K | 0.0145
in isopropanol, 289.95 K | 0.0198
in isopropanol, 296.95 K | 0.0271
in isopropanol, 303.55 K | 0.0368
in isopropanol, 310.95 K | 0.0486
in isopropanol, 317.95 K | 0.0639
in isopropanol, 324.75 K | 0.0816
in methanol, 283.25 K | 0.0179
in methanol, 290.35 K | 0.0242
in methanol, 297.05 K | 0.0322
in methanol, 303.85 K | 0.0443
in methanol, 310.95 K | 0.0572
in methanol, 317.85 K | 0.0748
in methanol, 324.85 K | 0.0951
in n-propanol, 283.15 K | 0.012
in n-propanol, 289.85 K | 0.017
in n-propanol, 296.75 K | 0.0233
in n-propanol, 303.85 K | 0.0308
in n-propanol, 310.75 K | 0.0422
in n-propanol, 317.75 K | 0.0559
in n-propanol, 325.05 K | 0.0718
in water, 283.25 K | 9.14e-05
in water, 290.25 K | 0.000131
in water, 297.15 K | 0.0002
in water, 303.85 K | 0.000291
in water, 310.85 K | 0.000439
in water, 318.15 K | 0.000662
in water, 325.15 K | 0.00107
in water, 332.45 K | 0.0017
in water, 339.15 K | 0.00265
